Source: paper PMC11360128, “Rigid Macrocycle Metal Complexes as CXCR4 Chemokine Receptor Antagonists: Influence of Ring Size” (Pharmaceutics, 2024)
Read-outs that look alike come from different tables or passages of the source.

Experiments:
[1] = Cellular cytotoxicity, microscopic evaluation and MTS assay; format: cell-based, human; settings: human, PHA-stimulated PBMCs, MTS, read-out: Toxicity CC50 PMBCs
Source text: (§1) Buffy coat preparations from healthy donors were obtained from the Blood Bank in Leuven, Belgium. For the chemokine binding studies, peripheral blood mononuclear cells (PBMCs) activated with phytohemagglutinin (PHA; Sigma, Belgium) were used. Human T-lymphocytic SUP-T1 cells and TZM-bl cells were obtained from the American Type Culture Collection (Rockville, MD) and maintained in RPMI-1640 supplemented with 10% foetal bovine serum (FBS). Human glioblastoma U87.MG and U87.CD4 cells were kindly provided by Dr. D. Littman and used to generate cells expressing CXCR4 or CCR5 [48]. The fluorescent chemokines CXCL12^AF647 and CCL5^AF647 were purchased from Almac. […] HIV-1 NL4-3 (CXCR4-using, X4) and HIV-1 BaL (CCR5-using, R5) were obtained through the AIDS Research and Reference Reagent Program (Division of AIDS, NIAID, NIH).
(§2) Cytotoxicity of the compounds was evaluated after 48 h of incubation at 37 °C in PHA-stimulated PBMCs (5 × 10^5 cells per well in culture medium). Each condition was tested in duplicate. Cytotoxicity was evaluated microscopically, and in addition, the cell viability was assessed using the colorimetric CellTiter 96 AQueous One Solution Cell Proliferation Assay (Promega, Fitchburg, WI, USA), which is based on the reduction of the tetrazolium salt MTS [3-(4,5-dimethylthiazol-2-yl)-5-(3-carboxymethoxyphenyl)-2-(4-sulfophenyl)-2H-tetrazolium] to formazan by metabolically active cells. Absorbance at 490 nm was measured with the Versa-Max ELISA microplate reader (Molecular Devices, Sunnyvale, CA, USA). The cytotoxic concentration 50 (CC50) of each compound was calculated based on the absorbance of negative (i.e., cells without compound) and positive (i.e., only culture medium) control samples.
(§3) The cellular cytotoxicity of all compounds was evaluated in PHA-stimulated PBMCs.

PHA-stimulated PBMCs = experiment: as above; format: cell-based, human; settings: 48 h, MTS, read-out: Toxicity CC50 PMBCs
Source text: as §1, §2, §3

CCR5 [2] = target: T1, CCR5 (Homo sapiens, UniProt P51681); experiment: CCL3L1-induced intracellular calcium mobilisation in CCR5-transfected U87 cells (FLIPR); format: cell-based; settings: mean ± SEM, read-out: Ca^2+ Signalling Assay IC50 CCL3L1
T1 construct: endogenous in cells
Protocol: CXCR4- or CCR5-positive U87 glioblastoma/astrocytoma cells were loaded with the fluorescent calcium indicator Fluo-3 acetoxymethyl (Molecular Probes) at 4 µM in the assay buffer (Hanks’ balanced salt solution with 20 mM HEPES buffer and 0.2% bovine serum albumin, pH 7.4) for 45 min at room temperature. After thorough washing with the assay buffer, cells were pre-incubated for 10 min at 37 °C in the same buffer with the compounds of interest. The intracellular calcium mobilisation in response to CXCL12 (CXCR4 chemokine ligand) or CCL3L1 (CCR5 chemokine ligand) was then measured at 37 °C by monitoring the fluorescence as a function of time simultaneously in all the wells by using a fluorometric imaging plate reader (FLIPR; Molecular Devices, Sunnyvale, CA, USA).
The potency of the different metal complexes was investigated in a functional downstream receptor signalling assay. The inhibitory effect of the tested compounds was examined by Ca^2+ mobilisation studies with the natural ligands CXCL12 and CCL3L1 for the chemokine receptors CXCR4 and CCR5, respectively. The Ca^2+ ions released from the endoplasmic reticulum were measured over time in CXCR4- or CCR5-transfected U87 glioblastoma cells via their specific interaction with the fluorescent Ca^2+ indicator Fluo-3 [63].

HIV-1 BaL (R5) = experiment: microbe, parasite or virus in culture; settings: read-out: Anti-HIV Activity IC50 BaL (R5)
Source text: (§4) Buffy coat preparations from healthy donors were obtained from the Blood Bank in Leuven, Belgium. For the chemokine binding studies, peripheral blood mononuclear cells (PBMCs) activated with phytohemagglutinin (PHA; Sigma, Belgium) were used. Human T-lymphocytic SUP-T1 cells and TZM-bl cells were obtained from the American Type Culture Collection (Rockville, MD) and maintained in RPMI-1640 supplemented with 10% foetal bovine serum (FBS). Human glioblastoma U87.MG and U87.CD4 cells were kindly provided by Dr. D. Littman and used to generate cells expressing CXCR4 or CCR5 [48]. The fluorescent chemokines CXCL12^AF647 and CCL5^AF647 were purchased from Almac. […]
(§5) TZM-bl cells were seeded in transparent 96-well plates at 1 × 10^4 cells per well in DMEM (Dulbecco’s modified Eagle medium; Life Technologies, Waltham, MA, USA) with 10% FBS and 10 mM HEPES. […] After 48 h of incubation, the assay plates were analysed. […] The luminescent signal of the lysed cell suspension was analysed in white 96-well plates on a Spectra-Max L luminescence microplate reader (Molecular Devices, Sunnyvale, CA, USA) after a 10 min incubation period in the dark. Luciferase activity induced by HIV-1 Tat protein expression was measured as an assessment of the amount of HIV replication. […]

CCR5 [3] = target: T1, CCR5; experiment: CCL5^AF647 chemokine binding inhibition assay in PBMCs; settings: AF647-labelled CCL5 in PBMCs; mean ± SEM; read-out: Competition Binding Assay IC50 CCL5
Protocol: Human PBMCs were washed once with assay buffer (Hanks’ balanced salt solution with 20 mM HEPES buffer and 0.2% bovine serum albumin, pH 7.4) and then incubated for 15 min at room temperature with the sample diluted in assay buffer at the indicated concentrations. Subsequently, CXCL12^AF647 (25 ng/mL) or CCL5^AF647 (50 ng/mL) was added to the compound-incubated cells. The cells were incubated for 30 min at room temperature. Thereafter, the cells were washed twice in assay buffer, fixed in 1% paraformaldehyde in PBS, and analysed on the FL4 channel of a FACSCalibur flow cytometer equipped with a 635 nm red diode laser (Becton Dickinson, San Jose, CA, USA). The percentage of inhibition of CXCL12^AF647 or CCL5^AF647 binding was calculated according to the formula: [1 − ((MFI − MFINC)/(MFIPC − MFINC))] × 100, where MFI is the mean fluorescence intensity of the cells incubated with CXCL12^AF647 or CCL5^AF647 in the presence of the inhibitor, MFINC is the mean fluorescence intensity measured in the negative control (i.e., autofluorescence of unlabelled cells), and MFIPC is the mean fluorescence intensity of the positive control (i.e., cells exposed to CXCL12^AF647 or CCL5^AF647 alone).
Binding affinity and selectivity towards CXCR4 were further evaluated through competition binding assays using natural chemokine ligands, tagged with Alexa Fluor 647, as previously reported. […]

HIV-1 NL4-3 (X4) = experiment: HIV infection assay, Tat-regulated luciferase reporter in TZM-bl cells, CXCR4-using strain; format: cell-based; settings: replication of HIV-1 NL4-3 (X4) in TZM-bl cells, mean ± SEM, read-out: Anti-HIV Activity IC50 NL4-3 (X4)
Source text: as §4, §5

T1 sequence (P51681 whole entry): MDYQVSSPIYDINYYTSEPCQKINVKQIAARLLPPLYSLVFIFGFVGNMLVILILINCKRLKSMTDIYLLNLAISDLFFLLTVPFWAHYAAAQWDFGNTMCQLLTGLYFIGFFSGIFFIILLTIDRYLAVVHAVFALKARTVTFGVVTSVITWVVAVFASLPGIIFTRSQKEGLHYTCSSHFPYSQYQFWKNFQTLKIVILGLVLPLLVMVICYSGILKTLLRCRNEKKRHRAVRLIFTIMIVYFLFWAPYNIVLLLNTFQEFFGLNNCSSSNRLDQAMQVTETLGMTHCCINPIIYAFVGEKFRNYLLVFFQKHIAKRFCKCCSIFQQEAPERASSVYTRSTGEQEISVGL

| Compound | CC50 at 48 h [1] [µM] | CC50 (PHA-stimulated PBMCs) [µM] | IC50 (CCR5 [2]) [µM] | IC50 (HIV-1 BaL (R5); Human immunodeficiency virus 1, BAL, TZM-bl) [nM] | IC50 (CCR5 [3]) [nM] | IC50 (HIV-1 NL4-3 (X4); Human immunodeficiency virus 1, NL43) [nM] | IC50 (HIV-1 BaL (R5); replication of HIV-1 BaL (R5) in TZM-bl cells, mean ± SEM) [nM] | IC50 (HIV-1 NL4-3 (X4)) [nM] |
| --- | --- | --- | --- | --- | --- | --- | --- | --- |
| c1cc(CN2CCCNCCNCCCNCC2)ccc1CN1CCCNCCNCCCNCC1 [AMD3100, reference compound] | ≥ 100 | > 100 | > 20 | > 20000 | > 1000 | 0.42 ± 0.14 |  |  |
| [Cu+2].[Cu+2].c1cc(CN2CCCNCCNCCCNCC2)ccc1CN1CCCNCCNCCCNCC1 [Cu2L^1] |  | ≥ 100 |  |  |  |  |  |  |
| Maraviroc [reference compound] |  |  |  |  |  |  | 2.9 ± 1.2 | > 20000 |
